Assays:
[1] = test system: Calu-3 human lung cancer cell line; experiment: MTT cytotoxicity assay, Calu-3; type: cell-based; details: mean ± SD of three independent experiments
Experimental: (§1) These phomoxanthone compounds (1–8) were evaluated for their cyctotoxic activity in vitro against four human cancer cell lines including human breast MDA-MB-435, human colon HCT-116, human lung Calu-3 and human liver Huh7, compared with their effects on the immortalized human breast epithelial cell line MCF-10A by MTT assay using epirubicin (an anticancer drug used widely in the clinic) as positive control.
(§2) MDA-MB-435, HCT-116, Calu-3 and Huh7 were cultured in Dulbecco’s modification Eagle’s medium (DMEM, Invitrogen, Carlsbad, CA, USA) supplemented with 10% fetal bovine serum (FBS, Hyclone, Logan, UT, USA), 2 mM L-glutamine, 100 μg/mL streptomycin and 100 U/mL penicillin (Invitrogen, Carlsbad, CA, USA). MCF-10A cells were cultured in keratinocyte serum free medium (KSFM) supplemented with 0.1–0.2 ng/mL human recombinant epidermal growth factor and 20–30 μg/mL bovine pituitary extract (Invitrogen, Carlsbad, CA, USA). The cells were incubated at 37 °C in a humidified atmosphere with 5% CO2.
(§3) Cells were harvested during logarithmic growth phase and seeded in 96-well plates at a density of 1 × 10^4 cells/mL, and cultured at 37 °C in a humidified incubator (5% CO2) for 24 h, followed by exposure to various concentrations of compounds tested for 48 h. Subsequently 20 μL of MTT (Genview, Houston, TX, USA) solution (5 mg/mL) was added to each well and mixed, the cells were then incubated for an additional 4 h. Culture supernatant was removed using the micropipette, 150 μL of DMSO (Sangon Biotech, Shanghai, China) was added to each well to fully dissolve the MTT-formazan crystals. Cell growth inhibition was determined by measuring the absorbance (Abs) at λ = 570 nm using a microplate reader and calculated according to the following equation: Growth inhibition = (1 − OD of treated cells/OD of control cells) × 100%
(§4) The half maximal inhibitory concentrations (IC50) were obtained from linear regression analysis of the concentration-response curves plotted for each tested compound.

[2] = test system: MDA-MB-435 human breast cancer cell line; experiment: MTT cytotoxicity assay, MDA-MB-435; type: cell-based; details: mean ± SD of three independent experiments
Experimental: as §1, §2, §3, §4

[3] = test system: four human cancer cell lines (MDA-MB-435, HCT-116, Calu-3, Huh7); experiment: MTT cytotoxicity assay, tested cancer cell lines taken together; type: cell-based; details: for cytotoxic activities against tested cancer cell lines (in words): MDA-MB-435, HCT-116, Calu-3, Huh7
Experimental: as §1, §2, §3, §4

[4] = test system: Huh7 human liver cancer cell line; experiment: MTT cytotoxicity assay, Huh7; type: cell-based; details: Huh-7, 48 h exposure, mean ± SD of three independent experiments
Experimental: as §1, §2, §3, §4

[5] = test system: HCT-116 human colon cancer cell line; experiment: MTT cytotoxicity assay, HCT-116; type: cell-based; details: mean ± SD of three independent experiments
Experimental: as §1, §2, §3, §4

[6] = test system: MCF-10A immortalized human breast epithelial cell line; experiment: MTT cytotoxicity assay, MCF-10A; type: cell-based; details: MCF-10A
Experimental: as §1, §2, §3, §4

[7] = MTT cytotoxicity assay, MCF-10A; type: cell-based, human; details: human, MCF-10A cells, 48 h exposure, mean ± SD of three independent experiments
Experimental: as §1, §2, §3, §4

A549 (lung tumor) = test system: A549 (lung tumor); parameters: method as in PMID 11520215; details: cited from earlier work
HCT-116 (colon tumor) = test system: HCT-116 (colon tumor); parameters: method as in PMID 11520215; details: cited from earlier work
[8] = Homo sapiens, Calu-3, 48 h, 48 h exposure
[9] = Homo sapiens, MDA-MB-435, 48 h, 48 h exposure
[10] = Homo sapiens, HCT-116, 48 h, 48 h exposure
[11] = Homo sapiens, Calu-3, 48 h exposure
[12] = Homo sapiens, HCT-116, 48 h exposure

CC(=O)OCC1(C2OC(=O)CC2C)CC(=O)c2c(O)ccc(-c3ccc4c(c3O)C(=O)C3=C(O)CC(C)C(OC(C)=O)C3(CO)O4)c2O1 (stereo not drawn) [Compound 1, Phomolactonexanthone A]
IC50 [1, 8]: 43.5 ± 2.51 µM | IC50 [2, 9]: > 50 µM | cytotoxic activities against tested cancer cell lines (in words) ([3]; MTT): weak/no cytotoxic activities | IC50 [4]: > 50 µM | IC50 [5, 10]: > 50 µM | cytotoxic effect on the immortalized human breast epithelial cell line (in words) [6]: no cytotoxic effect | IC50 at 48 h [7]: > 50 µM

CC(=O)O[C@@H]1[C@H](C)CC(O)=C2C(=O)c3c(ccc(-c4ccc5c(c4O)C(=O)C4=C(O)C[C@@H](C)[C@@H](OC(C)=O)[C@@]4(CO)O5)c3O)O[C@@]21CO [Compound 4, dicerandrol A]
cytotoxic activity against A549 compared with dicerandrol B (in words) (A549 (lung tumor)): less cytotoxic activities than dicerandrol B | cytotoxic activity against HCT-116 compared with dicerandrol B (in words) (HCT-116 (colon tumor)): less cytotoxic activities than dicerandrol B | IC50 [1, 8]: 1.76 ± 0.02 µM | IC50 [2, 9]: 3.03 ± 0.12 µM | IC50 ([3]; Homo sapiens, summary statement of the abstract, cell lines not specified, read-out: IC50 against tested cancer cell lines): < 10 µM | cytotoxic activities against tested cancer cell lines (in words) ([3]; MTT): significant cytotoxic activities | IC50 [4]: 4.19 ± 0.08 µM | IC50 [5, 10]: 2.64 ± 0.03 µM | cytotoxic effect on the immortalized human breast epithelial cell line (in words) [6]: displayed cytotoxic effect | IC50 at 48 h [7]: 28.3 ± 3.57 µM

CC(=O)O[C@@H]1[C@H](C)CC(O)=C2C(=O)c3c(O)ccc(-c4ccc(O)c5c4O[C@@]4(CO)C(=C(O)C[C@@H](C)[C@H]4OC(C)=O)C5=O)c3O[C@@]21CO [Compound 3, Deacetylphomoxanthone C]
IC50 [1, 8]: 43.4 ± 2.09 µM | IC50 [2, 9]: > 50 µM | cytotoxic activities against tested cancer cell lines (in words) ([3]; MTT): weak/no cytotoxic activities | IC50 [4]: > 50 µM | IC50 [5, 10]: 44.1 ± 3.29 µM | cytotoxic effect on the immortalized human breast epithelial cell line (in words) [6]: no cytotoxic effect | IC50 at 48 h [7]: > 50 µM

CC(=O)OC[C@]12Oc3ccc(-c4ccc5c(c4O)C(=O)C4=C(O)C[C@@H](C)[C@@H](OC(C)=O)[C@@]4(COC(C)=O)O5)c(O)c3C(=O)C1=C(O)C[C@@H](C)[C@H]2OC(C)=O [Compound 6, dicerandrol C]
IC50 [1, 8]: 36.5 ± 3.32 µM | IC50 [2, 9]: 44.1 ± 2.45 µM | anticancer activities against MDA-MB-435, HCT-116 and Calu-3 (in words) ([3]; MTT, MDA-MB-435, HCT-116, Calu-3): weak anticancer activities | IC50 [4]: > 50 µM | IC50 [5, 10]: 42.6 ± 2.9 µM | IC50 at 48 h [7]: 33 ± 2.74 µM

CC(=O)OCC1(C2OC(=O)CC2C)CC(=O)c2c(ccc(-c3ccc4c(c3O)C(=O)C3=C(O)CC(C)C(OC(C)=O)C3(CO)O4)c2O)O1 (stereo not drawn) [Compound 2, Phomolactonexanthone B]
melting point: 101.6 to 102.4 °C | IC50 [1, 11]: > 50 µM | IC50 ([2]; Homo sapiens, MDA-MB-435, 48 h exposure): > 50 µM | cytotoxic activities against tested cancer cell lines (in words) ([3]; MTT): weak/no cytotoxic activities | IC50 [4]: > 50 µM | IC50 [5, 12]: > 50 µM | cytotoxic effect on the immortalized human breast epithelial cell line (in words) [6]: no cytotoxic effect | IC50 at 48 h [7]: > 50 µM

COc1cccc2c1C(=O)c1c(O)c3c(c(O)c1C2=O)C[C@@](O)(C(=O)CO)C[C@@H]3O[C@H]1C[C@H](N)[C@@H](O)[C@H](C)O1 [epirubicin, reference compound]
IC50 [1, 11]: 1.03 ± 0.1 µM | IC50 [4]: 0.96 ± 0.01 µM | IC50 [5, 12]: 0.48 ± 0.029 µM | IC50 at 48 h [7]: 0.48 ± 0.08 µM

CC(=O)OC[C@]12Oc3ccc(-c4ccc5c(c4O)C(=O)C4=C(O)C[C@@H](C)[C@@H](OC(C)=O)[C@@]4(CO)O5)c(O)c3C(=O)C1=C(O)C[C@@H](C)[C@H]2OC(C)=O [Compound 5, dicerandrol B]
IC50 ([2]; 48 h exposure): 8.65 ± 0.66 µM | IC50 [2, 9]: < 10 µM | IC50 [4]: 30.4 ± 1.1 µM | cytotoxic effect on the immortalized human breast epithelial cell line (in words) [6]: less marked cytotoxic effect | IC50 at 48 h [7]: 8.14 ± 1.27 µM

CC(=O)O[C@@H]1[C@H](C)CC(O)=C2C(=O)c3c(ccc(-c4ccc(O)c5c4O[C@@]4(CO)C(=C(O)C[C@@H](C)[C@H]4OC(C)=O)C5=O)c3O)O[C@@]21CO [Compound 7, deacetylphomoxanthone B]
IC50 [1, 8]: 4.14 ± 0.02 µM | IC50 [2, 9]: 14.4 ± 1.18 µM | cytotoxic activities against tested cancer cell lines (in words) ([3]; MTT): excellent selective activities against HCT-116 and Calu-3 cell lines over other cancer cell lines | IC50 [4]: 29.2 ± 1.19 µM | IC50 [5, 10]: 7.12 ± 0.7 µM | cytotoxic effect on the immortalized human breast epithelial cell line (in words) [6]: no cytotoxic effect | IC50 at 48 h [7]: > 50 µM

CC(=O)OC[C@]12Oc3ccc(-c4ccc(O)c5c4O[C@@]4(CO)C(=C(O)C[C@@H](C)[C@H]4OC(C)=O)C5=O)c(O)c3C(=O)C1=C(O)C[C@@H](C)[C@H]2OC(C)=O [Compound 8, penexanthone A]
IC50 ([1]; 48 h exposure): 6.44 ± 0.86 µM | IC50 [1, 8]: < 10 µM | IC50 ([2]; 48 h exposure): 7.9 ± 0.58 µM | IC50 [2, 9]: < 10 µM | IC50 [4]: 42.8 ± 3.58 µM | IC50 ([5]; 48 h exposure): 6.92 ± 0.38 µM | IC50 [5, 10]: < 10 µM | cytotoxic effect on the immortalized human breast epithelial cell line (in words) [6]: less marked cytotoxic effect | IC50 at 48 h [7]: 16.1 ± 1.57 µM
